Laboratory results as given in patent publication US10155749B2, “Substituted benzimidazolium compounds useful in the treatment of respiratory diseases” (Boehringer Ingelheim International GmbH, priority 2015, dated 2018).

Tests used:
[1] = Permeability in CALU-3 cells; type: in vitro ADME; conditions: human, CALU-3 monolayers, pH 7.4, 37° C., 10 μM compound; for Papp A→B at 90 min, 10 μM: apical-to-basal; for Papp B→A at 90 min, 10 μM: basal-to-apical
Description: Permeability in CALU-3 Cells:
Permeability measurements across polarized, confluent CALU-3 cell monolayers grown on permeable filter supports are used to provide information on the potential of a compound to pass the lung epithelium. Apparent permeability coefficients (Papp) of the compounds across the CALU-3 cell monolayers are measured (pH 7.4, 37° C.) in apical-to-basal (AB) and basal-to-apical (BA) transport direction.
CALU-3 cells (1-2×10^5 cells/1 cm^2 area) are seeded on filter inserts (Costar transwell polycarbonate filters, 0.4 μm pore size) and cultured (for 10-12 days DMEM) until tight monolayers are formed. Compounds of interest are dissolved in appropriate solvent (DMSO, 10 mM stock solution). Stock solutions are diluted with HTP-4 buffer (128.13 mM NaCl, 5.36 mM KCl, 1 mM MgSO4, 1.8 mM CaCl2, 4.17 mM NaHCO3, 1.19 mM Na2HPO4×7H2O, 0.41 mM NaH2PO4×H2O, 15 mM HEPES, 20 mM glucose, 0.25% BSA, pH 7.4) to prepare the transport solutions (10 μM compound, final DMSO<=0.5%). The transport solution (TL) is applied to the apical or basolateral donor side for measuring A-B or B-A permeability (3 filter replicates), respectively. The receiver side contains the same buffer as the donor side. After 30 min of accommodation, samples are collected at the start t0=0 min and at the end of the experiment tn=90 min from the donor and at 0, 30, 60, and 90 min also from the receiver chamber. Volume removed is […] by HTP-4 buffer. The compound concentration in the samples is measured by HPLC-MS/MS or scintillation counting. The permeability coefficient (Papp) and efflux ratio are calculated according to: Papp [cm/s]=(concentration receiver [nM]*volume receiver [mL]/time interval [sec])*(1/filter area)*(1/donor concentration [nM]).

[2] = molecular target: T1, ENaC (Epithelial Sodium Channel) (Mus musculus, UniProt Q61180+Q9WU38+Q9WU39); test: Ussing Chamber assay (short circuit current, amiloride sensitive I_SC) in M-1 cells; type: cell-based; conditions: Mouse kidney M-1 cells, apical application, 37° C.
T1 construct: Mouse kidney M-1 cells were cultivated in DMEM containing 5% FCS and 5 μM dexamethasone; endogenous in cells; host or cells: Mouse kidney M-1 cells
T1 sequence (Q61180 1-699): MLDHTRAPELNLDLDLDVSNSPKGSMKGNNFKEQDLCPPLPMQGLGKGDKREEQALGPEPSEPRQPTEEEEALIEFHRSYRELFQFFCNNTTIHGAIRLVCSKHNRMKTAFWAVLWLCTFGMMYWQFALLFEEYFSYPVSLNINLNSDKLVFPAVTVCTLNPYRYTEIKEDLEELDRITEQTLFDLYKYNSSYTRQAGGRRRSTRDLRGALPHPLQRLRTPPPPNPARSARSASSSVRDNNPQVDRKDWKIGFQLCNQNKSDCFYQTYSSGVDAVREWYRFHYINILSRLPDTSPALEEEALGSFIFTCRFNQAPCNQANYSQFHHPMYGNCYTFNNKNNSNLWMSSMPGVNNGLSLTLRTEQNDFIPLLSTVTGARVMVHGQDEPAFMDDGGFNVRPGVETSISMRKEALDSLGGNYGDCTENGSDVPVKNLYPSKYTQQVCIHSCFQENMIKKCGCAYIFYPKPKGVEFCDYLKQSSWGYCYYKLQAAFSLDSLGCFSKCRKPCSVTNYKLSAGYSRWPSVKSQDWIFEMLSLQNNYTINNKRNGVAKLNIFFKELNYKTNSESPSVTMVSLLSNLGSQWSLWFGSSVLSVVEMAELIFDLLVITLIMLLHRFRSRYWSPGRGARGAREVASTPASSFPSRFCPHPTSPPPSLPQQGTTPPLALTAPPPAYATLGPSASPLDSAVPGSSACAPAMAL
T1 sequence (Q9WU38 1-638): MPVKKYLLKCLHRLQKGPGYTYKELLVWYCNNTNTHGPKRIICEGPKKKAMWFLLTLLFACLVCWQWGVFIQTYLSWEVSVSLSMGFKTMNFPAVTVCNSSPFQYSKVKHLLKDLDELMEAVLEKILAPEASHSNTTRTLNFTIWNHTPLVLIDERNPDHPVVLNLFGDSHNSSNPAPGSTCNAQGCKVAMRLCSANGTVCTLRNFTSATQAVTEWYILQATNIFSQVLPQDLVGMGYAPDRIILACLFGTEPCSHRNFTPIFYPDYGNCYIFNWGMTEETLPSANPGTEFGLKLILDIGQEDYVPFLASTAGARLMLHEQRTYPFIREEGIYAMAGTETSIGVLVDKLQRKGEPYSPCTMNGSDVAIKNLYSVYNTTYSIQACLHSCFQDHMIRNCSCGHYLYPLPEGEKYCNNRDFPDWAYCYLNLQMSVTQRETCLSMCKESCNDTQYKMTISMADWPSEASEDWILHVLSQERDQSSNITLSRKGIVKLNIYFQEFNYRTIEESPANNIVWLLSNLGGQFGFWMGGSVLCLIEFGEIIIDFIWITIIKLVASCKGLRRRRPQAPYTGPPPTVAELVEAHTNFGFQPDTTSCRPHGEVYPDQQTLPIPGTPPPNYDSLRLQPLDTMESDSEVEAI
T1 sequence (Q9WU39 1-655): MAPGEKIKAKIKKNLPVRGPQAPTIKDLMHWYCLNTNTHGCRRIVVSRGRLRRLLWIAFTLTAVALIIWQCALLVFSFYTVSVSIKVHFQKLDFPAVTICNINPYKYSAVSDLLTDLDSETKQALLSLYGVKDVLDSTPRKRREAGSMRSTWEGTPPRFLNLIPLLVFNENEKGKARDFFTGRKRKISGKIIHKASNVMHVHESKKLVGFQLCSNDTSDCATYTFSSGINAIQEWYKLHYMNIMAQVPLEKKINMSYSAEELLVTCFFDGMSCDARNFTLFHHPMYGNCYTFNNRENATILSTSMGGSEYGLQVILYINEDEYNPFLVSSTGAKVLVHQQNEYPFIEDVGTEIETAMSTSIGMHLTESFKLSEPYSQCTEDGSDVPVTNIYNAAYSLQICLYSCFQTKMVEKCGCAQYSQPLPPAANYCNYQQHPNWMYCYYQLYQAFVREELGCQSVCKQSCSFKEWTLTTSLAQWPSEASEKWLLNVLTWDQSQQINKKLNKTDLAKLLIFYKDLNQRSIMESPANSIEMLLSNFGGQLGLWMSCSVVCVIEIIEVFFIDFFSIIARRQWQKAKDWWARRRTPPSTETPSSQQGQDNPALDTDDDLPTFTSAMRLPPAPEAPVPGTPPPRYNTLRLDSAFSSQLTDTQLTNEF
Description: The IC50 values of the example compounds given above were determined in the Ussing Chamber assay.
Ussing Chamber: Mouse kidney M-1 cells were cultivated in DMEM containing 5% FCS and 5 μM dexamethasone for 10 to 12 days on polyester transwell filters. Filters were inserted into a teflon-coated well-plate which fit into the ussing chamber system. Prior to measurement the medium of M-1 cells was replaced with Caco-2 transport buffer (Invitrogen, Germany). During measurements, the Ussing chamber temperature was kept at 37° C. Short circuit currents (I_sc) were measured in the voltage-clamp mode with the software package Lab View for data acquisition and analysis. The transepithelial electrical resistance (TEER) was determined by the application of voltage steps of ±5 mV every 5 sec. Compounds were administered at a final concentration of 3 μM or at increasing concentrations (1-3-10 μM) to the apical solution. At the end of each experiment the amiloride sensitive I_SC was measured by adding 3 μM amiloride to the apical compartment. Results are expressed as inhibition in percent of the amiloride effect or as IC50.

Row | SMILES | Papp A→B at 90 min, 10 μM [1] | Papp B→A at 90 min, 10 μM [1] | IC50 [2]
1 | CCn1c(CNC(=O)c2nc(Cl)c(N)nc2N)[n+](CC)c2ccc(OCC(=O)N(Cc3nc(C)ccc3O)C[C@H](C)O)cc21.O=C([O-])C(F)(F)F [Example 3.05] | 0.2 ×10⁻⁶ cm/s | 0.3 ×10⁻⁶ cm/s | 2 nM
2 | CC[n+]1c(CNC(=O)c2nc(Cl)c(N)nc2N)n(C[C@H](C)O)c2cc(N(C)C)c(C(=O)N3CCN(C(=O)Cc4ccccn4)CC3)cc21.O=C([O-])C(F)(F)F [Example 4.14] | 0.3 ×10⁻⁶ cm/s | 0.2 ×10⁻⁶ cm/s | 19 nM
3 | CCn1c(CNC(=O)c2nc(Cl)c(N)nc2N)[n+](CC)c2ccc(C(=O)NCCN(C)C)cc21.Cl.[Cl-] [Example 3.06] | 0.02 ×10⁻⁶ cm/s | 0.03 ×10⁻⁶ cm/s | 1 nM
4 | CC[n+]1c(CNC(=O)c2nc(Cl)c(N)nc2N)n(C[C@H](C)O)c2cc(OCCN(CP(C)(C)=O)C(=O)CC(C)C)ccc21.O=C([O-])C(F)(F)F [Example 1.05] | 0.1 ×10⁻⁶ cm/s | 0.01 ×10⁻⁶ cm/s | 1 nM
5 | CCCCCCN1CCC(NC(=O)c2cc3c(cc2F)n(CC)c(CNC(=O)c2nc(Cl)c(N)nc2N)[n+]3CC)CC1.O=CO.O=C[O-] [Example 10.01] | 0.3 ×10⁻⁶ cm/s | 0.3 ×10⁻⁶ cm/s | 1 nM
6 | CCn1c(CNC(=O)c2nc(Cl)c(N)nc2N)[n+](CC)c2cc(C(=O)N3CCOCC3)c(N3CCOCC3)cc21 [Example 5.02] | 0.09 ×10⁻⁶ cm/s | 0.1 ×10⁻⁶ cm/s | 3 nM
7 | CCCCCCN(C)C(=O)c1cc2c(cc1O[C@H]1COC[C@@H]1O)n(CCO)c(CNC(=O)c1nc(Cl)c(N)nc1N)[n+]2CC.O=C([O-])C(F)(F)F [Example 1.15] | 0.2 ×10⁻⁶ cm/s | 0.08 ×10⁻⁶ cm/s | 8 nM
8 | CCCCCOc1cc2c(cc1C(=O)N1CCN(C(=O)Cc3ccccn3)CC1)[n+](CC)c(CNC(=O)c1nc(Cl)c(N)nc1N)n2C[C@H](C)O.O=C([O-])C(F)(F)F [Example 4.15] | 0.3 ×10⁻⁶ cm/s | 0.3 ×10⁻⁶ cm/s | 34 nM
9 | CCNC(=O)c1cc2c(cc1OCC(=O)NCCN(C)C)n(CC)c(CNC(=O)c1nc(Cl)c(N)nc1N)[n+]2CC.Cl.[Cl-] [Example 3.17] | 0.08 ×10⁻⁶ cm/s | 0.08 ×10⁻⁶ cm/s | 15 nM
10 | CC[n+]1c(CNC(=O)c2nc(Cl)c(N)nc2N)n(CC2CCCCC2)c2cc(OCCOP(=O)(O)CCC[N+](C)(C)C)ccc21 [Example 1.12] | 0.1 ×10⁻⁶ cm/s | 0.04 ×10⁻⁶ cm/s | 8 nM
11 | CCn1c(CNC(=O)c2nc(Cl)c(N)nc2N)[n+](CC)c2ccc(OCCNC(=O)CCN(C)C)cc21.Cl [Example 4.01] | 0.2 ×10⁻⁶ cm/s | 0.2 ×10⁻⁶ cm/s | 1 nM
12 | CC[n+]1c(CNC(=O)c2nc(Cl)c(N)nc2N)n(C[C@H](C)O)c2cc(N(C)C)c(C(=O)N3CCN(C(=O)OC(C)(C)C)CC3)cc21.O=C([O-])C(F)(F)F [Example 1.02] | 0.08 ×10⁻⁶ cm/s | 0.1 ×10⁻⁶ cm/s | 25 nM
13 | CCOCCNC(=O)c1cc2c(cc1N1CCOCC1)n(CC)c(CNC(=O)c1nc(Cl)c(N)nc1N)[n+]2CC.[Cl-] [Example 5.01] | 0.3 ×10⁻⁶ cm/s | 0.06 ×10⁻⁶ cm/s | 5 nM
14 | CCn1c(CNC(=O)c2nc(Cl)c(N)nc2N)[n+](CC)c2ccc(OCCNC(=O)[C@H](C)NC)cc21.Cl.[Cl-] [Example 6.02] | 0.08 ×10⁻⁶ cm/s | 0.06 ×10⁻⁶ cm/s | 1 nM
15 | CC[n+]1c(CNC(=O)c2nc(Cl)c(N)nc2N)n(CCO)c2cc(OCC(=O)NCCC[n+]3cccc([O-])c3)ccc21.O=C([O-])C(F)(F)F [Example 1.01] | 0.04 ×10⁻⁶ cm/s | 0.06 ×10⁻⁶ cm/s | 2 nM
16 | CC[n+]1c(CNC(=O)c2nc(Cl)c(N)nc2N)n(CC2CC2)c2cc(OCC(=O)N(C)Cc3nc(C)ccc3O)ccc21 [Example 1.08] | 0.08 ×10⁻⁶ cm/s | 0.2 ×10⁻⁶ cm/s | 1 nM
